Source: ChEMBL document CHEMBL1201862, “PubChem BioAssay data set” (2004)
Calls of active or inactive are those of the source.

What was measured:
Assay type in all cases: functional
[1] = target: T1, Sentrin-specific protease 7 (Homo sapiens, UniProt Q9BQF6);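 note: Luminescence-based dose-response confirmation of ultra-high-throughput screening hits, measuring inhibition of SENP7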
T1 sequence (Q9BQF6 whole entry): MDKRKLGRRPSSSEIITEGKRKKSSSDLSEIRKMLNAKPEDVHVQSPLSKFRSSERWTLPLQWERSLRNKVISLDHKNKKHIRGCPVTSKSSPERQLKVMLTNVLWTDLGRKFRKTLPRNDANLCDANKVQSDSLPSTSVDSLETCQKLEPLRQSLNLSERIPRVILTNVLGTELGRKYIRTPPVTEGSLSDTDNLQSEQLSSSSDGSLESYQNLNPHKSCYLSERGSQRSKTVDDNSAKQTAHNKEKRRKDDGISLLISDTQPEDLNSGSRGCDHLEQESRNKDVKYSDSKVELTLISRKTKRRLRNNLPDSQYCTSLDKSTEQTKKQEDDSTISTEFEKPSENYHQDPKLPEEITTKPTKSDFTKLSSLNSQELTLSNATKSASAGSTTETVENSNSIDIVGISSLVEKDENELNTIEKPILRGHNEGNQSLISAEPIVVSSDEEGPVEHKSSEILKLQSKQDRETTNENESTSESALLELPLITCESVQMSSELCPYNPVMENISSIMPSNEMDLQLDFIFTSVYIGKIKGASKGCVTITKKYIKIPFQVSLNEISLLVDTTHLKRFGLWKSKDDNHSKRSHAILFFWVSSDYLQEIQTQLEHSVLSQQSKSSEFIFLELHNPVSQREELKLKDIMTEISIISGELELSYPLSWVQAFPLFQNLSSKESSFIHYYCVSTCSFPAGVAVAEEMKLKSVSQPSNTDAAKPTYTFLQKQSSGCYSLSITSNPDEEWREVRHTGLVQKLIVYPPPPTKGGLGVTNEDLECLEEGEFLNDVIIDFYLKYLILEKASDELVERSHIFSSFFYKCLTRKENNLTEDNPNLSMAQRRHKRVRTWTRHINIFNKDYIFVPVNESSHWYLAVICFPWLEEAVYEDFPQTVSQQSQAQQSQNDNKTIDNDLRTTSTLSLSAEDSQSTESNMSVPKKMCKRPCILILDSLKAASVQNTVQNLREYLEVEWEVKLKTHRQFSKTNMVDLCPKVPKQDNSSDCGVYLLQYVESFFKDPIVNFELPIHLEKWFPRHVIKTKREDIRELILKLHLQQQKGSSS

[2] = target: T2, Endoribonuclease toxin MazF (Escherichia coli K-12, UniProt P0AE70); experiment: substrate-only fluorescence increase artefacts – biochemical, single-stranded RNase substrate, counter-screen for MazEF activator project, dose response (AID 588502)
T2 sequence (P0AE70 whole entry): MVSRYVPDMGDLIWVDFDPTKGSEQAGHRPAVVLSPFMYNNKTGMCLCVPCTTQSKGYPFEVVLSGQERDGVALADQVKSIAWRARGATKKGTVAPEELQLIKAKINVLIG

[3] = IC50 of Artemis nuclease activity blockers – biochemical, fluorescence intensity, dose response (AID 720701);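 note: Artemis endonuclease enzyme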
[4] = viability loss in MITF-independent A375 cells – cell-based, CellTiter-Glo luminescence, dry powder, set 2, counter-screen for MITF inhibitor project, dose response (AID 624489); settings: A-375;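 note: actives are compounds lowering A375 viability meaning general cytotoxicity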
[5] = target: T3, Apoptotic protease-activating factor 1 (Homo sapiens, UniProt O14727)
T3 sequence (O14727 whole entry): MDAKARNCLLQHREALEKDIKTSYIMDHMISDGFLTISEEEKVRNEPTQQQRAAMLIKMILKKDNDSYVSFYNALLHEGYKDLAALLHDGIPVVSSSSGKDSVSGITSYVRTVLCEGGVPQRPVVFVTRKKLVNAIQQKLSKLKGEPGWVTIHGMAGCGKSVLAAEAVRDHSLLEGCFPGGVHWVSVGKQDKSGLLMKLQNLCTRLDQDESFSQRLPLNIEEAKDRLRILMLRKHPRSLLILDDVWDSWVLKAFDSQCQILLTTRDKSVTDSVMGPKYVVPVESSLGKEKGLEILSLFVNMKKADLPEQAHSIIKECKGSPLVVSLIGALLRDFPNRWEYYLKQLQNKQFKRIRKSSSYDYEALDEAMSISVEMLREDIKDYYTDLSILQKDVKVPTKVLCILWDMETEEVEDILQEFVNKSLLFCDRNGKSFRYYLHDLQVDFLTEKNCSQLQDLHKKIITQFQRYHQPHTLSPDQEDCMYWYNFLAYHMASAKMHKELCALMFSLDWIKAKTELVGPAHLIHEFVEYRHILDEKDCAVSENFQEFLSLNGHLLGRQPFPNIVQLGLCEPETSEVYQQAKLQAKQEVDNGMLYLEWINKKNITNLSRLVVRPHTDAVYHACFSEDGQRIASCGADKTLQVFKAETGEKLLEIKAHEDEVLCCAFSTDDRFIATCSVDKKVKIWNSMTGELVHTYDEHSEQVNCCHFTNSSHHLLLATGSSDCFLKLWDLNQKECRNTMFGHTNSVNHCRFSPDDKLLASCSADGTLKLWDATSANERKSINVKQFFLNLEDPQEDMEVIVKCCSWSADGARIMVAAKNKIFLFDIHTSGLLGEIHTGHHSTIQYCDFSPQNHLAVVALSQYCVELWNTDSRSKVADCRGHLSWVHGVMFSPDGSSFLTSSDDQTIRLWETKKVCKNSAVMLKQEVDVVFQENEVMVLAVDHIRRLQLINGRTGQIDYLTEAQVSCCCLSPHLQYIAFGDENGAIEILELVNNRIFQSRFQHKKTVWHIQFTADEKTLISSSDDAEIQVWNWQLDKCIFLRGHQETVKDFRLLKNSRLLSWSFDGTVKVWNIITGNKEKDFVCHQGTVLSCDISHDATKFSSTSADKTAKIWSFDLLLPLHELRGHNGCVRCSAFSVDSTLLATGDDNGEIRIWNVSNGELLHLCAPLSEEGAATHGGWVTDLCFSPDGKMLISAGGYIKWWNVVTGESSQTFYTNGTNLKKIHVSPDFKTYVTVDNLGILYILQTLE

[6] = cytotoxicity in MITF-independent A375 cells – cell-based, CellTiter-Glo luminescence, dry powder, set 4, counter-screen for MITF inhibitor project, dose response (AID 624364); settings: A-375;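 note: A375 melanoma cells are MITF independent so this is a counter screen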

## Oc1[nH]c2ccccc2c1N=Nc1ccc(F)cc1
[1]
  IC50: 1.51 µM (active)
[2]
  EC50: > 99 µM (inactive)

## O=C1C(Nc2ccccc2)=C(N2CCCCC2)C(=O)c2ccccc21
[3]
  IC50: 18.9 µM (active)
[4]
  AC50: 24.9 µM (active)
[5]
  IC50: 4.78 µM (active)
[6]
  AC50: 37.4 µM (active)
